Laboratory results as given in patent US20250195513A1, “DEGRADATION OF IRAK4 BY CONJUGATION OF IRAK4 INHIBITORS WITH E3 LIGASE LIGAND AND METHODS OF USE” (BeiGene, Ltd., priority 2022, published 2025).

Columns and labels:
Type in all cases: cell-based
IRAK4 [1] = target: T1, IRAK4 (Homo sapiens, UniProt Q9NWZ3); experiment: IRAK4 Degradation Assay (Karpas299, HTRF/TR-FRET); settings: Karpas-299 cells; for Dmax: maximum percentage of degradation
T1 construct: endogenous in cells; host or cells: Karpas299
T1 sequence (Q9NWZ3 1-460): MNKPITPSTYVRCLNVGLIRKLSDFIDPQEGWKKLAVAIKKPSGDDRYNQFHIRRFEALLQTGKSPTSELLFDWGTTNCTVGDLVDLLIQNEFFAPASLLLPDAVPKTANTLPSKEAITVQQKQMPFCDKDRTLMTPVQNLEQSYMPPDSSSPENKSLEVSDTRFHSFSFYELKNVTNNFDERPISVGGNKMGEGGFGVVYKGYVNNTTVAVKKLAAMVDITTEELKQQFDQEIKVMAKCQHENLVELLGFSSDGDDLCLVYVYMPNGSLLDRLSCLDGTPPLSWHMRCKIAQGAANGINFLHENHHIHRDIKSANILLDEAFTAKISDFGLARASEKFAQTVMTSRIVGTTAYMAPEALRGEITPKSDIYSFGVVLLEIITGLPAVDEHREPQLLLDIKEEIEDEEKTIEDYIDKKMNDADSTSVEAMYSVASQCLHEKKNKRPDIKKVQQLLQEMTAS
Method in brief: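 Compound potency as DC50 (IC50) came from four-parameter fits of percent IRAK4 degradation. IRAK4 was measured by HTRF (665/620 nm) in lysates of Karpas299 cells seeded at 0.2 million per well. Cells had been treated with compound dilutions for 5 or 24 h.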

IRAK4 [2] = target: T1, IRAK4; experiment: IRAK4 Degradation Assay with Human Serum (Karpas299, HTRF/TR-FRET); settings: Karpas-299 in human serum, 24 hrs treatment; for DC50: read-out: IRAK4 degradtion with human serum assay DC50; for Dmax: read-out: IRAK4 degradtion with human serum assay Dmax (%)
Method in brief: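 Remaining IRAK4 measured by TR-FRET immunoassay on lysates of Karpas299 cells exposed 24 h to compound dilution series in human serum AB. DC50 derived from a Hill-slope fit of % degradation versus concentration.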

[3] = system: TNF-α production in THP-1 cells; experiment: TNF-α Production Assay in THP-1 Cells (LPS stimulated); settings: Homo sapiens, THP-1, 24 h; for Emax: maximum inhibition, read-out: TNF-α (THP-1) 24 h IMax
Procedure: THP-1 cells maintained in RPMI 1640 medium (Thermo Scientific) supplemented with 10% FBS (Thermo Scientific), 100 units/mL penicillin and 0.1 mg/mL streptomycin (Thermo Scientific) were seeded into 96-well plates at the density of 0.2 million cells per well and then treated with compounds for 24 h. Lipopolysaccharide was subsequently added at the final concentration of 1 μg/mL for 24 h. Culture supernatant was collected for measurement of TNF-α concentration by a TR-FRET-based method (Degorce, François, et al. Current chemical genomics. 2009, 3: 22) as described by the manufacturer manual (Cisbio). FRET signals were measured using a PHERAstar FSX reader (BMG Labtech).

[4] = 24 h treatment, read-out: IRAK4 in Karpas-299 (24 h) Dmax (%)
[5] = 24 h treatment, read-out: IRAK4 in Karpas-299 (24 h) DC50
[6] = 5 h treatment, read-out: IRAK4 in Karpas-299 (5 h) Dmax (%)
[7] = 5 h treatment, read-out: IRAK4 in Karpas-299 (5 h) DC50

| SMILES | Dmax (IRAK4 [1]; [4]) | DC50 (IRAK4 [1]; [5]) | DC50 (IRAK4 [2]) | Dmax (IRAK4 [2]) | IC50 [3] | Emax [3] | Dmax (IRAK4 [1]; [6]) | DC50 (IRAK4 [1]; [7]) |
| --- | --- | --- | --- | --- | --- | --- | --- | --- |
| C[C@@H]1CN(C2CN(c3cc(F)c([C@H]4CCC(=O)NC4=O)c(F)c3)C2)CCN1[C@H]1CC[C@H](n2cc3cc(NC(=O)c4ccc5cc(C#N)cnn45)c(C(C)(C)O)cc3n2)CC1 [Example 302, 3-cyano-N-(2-((1R,4r)-4-((R)-4-(1-(4-((R)-2,6-dioxopiperidin-3-yl)-3,5-difluorophenyl)azetidin-3-yl)-2-methylpiperazin-1-yl)cyclohexyl)-6-(2-hydroxypropan-2-yl)-2H-indazol-5-yl)pyrrolo[1,2-b]pyridazine-7-carboxamide] | 98% | 0.0008 µM | 0.0088 µM | 96% | 0.038 µM | 84% | – | – |
| CC(C)(O)c1cc2nn(C3CCN([C@H]4CCN(CCc5cc(F)c([C@H]6CCC(=O)NC6=O)c(F)c5)CC4(F)F)CC3)cc2cc1NC(=O)c1ccc2cc(C#N)cnn12 [Example 339, 3-cyano-N-(2-((S)-1′-(4-((R)-2,6-dioxopiperidin-3-yl)-3,5-difluorophenethyl)-3′,3′-difluoro-[1,4′-bipiperidin]-4-yl)-6-(2-hydroxypropan-2-yl)-2H-indazol-5-yl)pyrrolo[1,2-b]pyridazine-7-carboxamide] | 95% | 0.0025 µM | 0.02 µM | 99% | 0.122 µM | 67% | – | – |
| COc1cc2nn([C@H]3CC[C@H](N4CCN(C(=O)C5CN(c6cc(F)c(N7CCC(=O)NC7=O)c(F)c6)C5)CC4)CC3)cc2cc1NC(=O)c1cccc(C(F)(F)F)n1 [Example 176, N-(2-((1r,4r)-4-(4-(1-(4-(2,4-dioxotetrahydropyrimidin-1(2H)-yl)-3,5-difluorophenyl)azetidine-3-carbonyl)piperazin-1-yl)cyclohexyl)-6-methoxy-2H-indazol-5-yl)-6-(trifluoromethyl)picolinamide] | 97% | 0.0016 µM | – | – | 0.12 µM | 78% | 96% | 0.012 µM |
| C[C@H]1CN([C@H]2CC[C@H](n3cc4cc(NC(=O)c5ccc6cc(C#N)cnn56)c(C(C)(C)O)cc4n3)CC2)CCN1C(=O)C1CN(c2cc(F)c([C@H]3CCC(=O)NC3=O)c(F)c2)C1 [Example 311, 3-cyano-N-(2-((1S,4r)-4-((S)-4-(1-(4-((R)-2,6-dioxopiperidin-3-yl)-3,5-difluorophenyl)azetidine-3-carbonyl)-3-methylpiperazin-1-yl)cyclohexyl)-6-(2-hydroxypropan-2-yl)-2H-indazol-5-yl)pyrrolo[1,2-b]pyridazine-7-carboxamide] | 98% | 0.0008 µM | 0.015 µM | 99% | 0.029 µM | 91% | – | – |
| [2H]C([2H])([2H])Oc1cc2nn([C@H]3CC[C@H](N4CCN(C(=O)C5CN(c6cc(F)c(N7CCC(=O)NC7=O)c(F)c6)C5)CC4)CC3)cc2cc1NC(=O)c1cccc(C(F)(F)F)n1 [Example 173, N-(2-((1r,4r)-4-(4-(1-(4-(2,4-dioxotetrahydropyrimidin-1(2H)-yl)-3,5-difluorophenyl)azetidine-3-carbonyl)piperazin-1-yl)cyclohexyl)-6-(methoxy-d3)-2H-indazol-5-yl)-6-(trifluoromethyl)picolinamide] | 98% | 0.0018 µM | – | – | 0.069 µM | 79% | 99% | 0.017 µM |
| COC[C@H]1CN([C@H]2CC[C@H](n3cc4cc(NC(=O)c5ccc6cc(C#N)cnn56)c(C(C)(C)O)cc4n3)CC2)CCN1C(=O)C1CN(c2cc(F)c(N3CCC(=O)NC3=O)c(F)c2)C1 [Example 315, 3-cyano-N-(2-((1R,4r)-4-((R)-4-(1-(4-(2,4-dioxotetrahydropyrimidin-1(2H)-yl)-3,5-difluorophenyl)azetidine-3-carbonyl)-3-(methoxymethyl)piperazin-1-yl)cyclohexyl)-6-(2-hydroxypropan-2-yl)-2H-indazol-5-yl)pyrrolo[1,2-b]pyridazine-7-carboxamide] | 95% | 0.0006 µM | 0.018 µM | 99% | 0.022 µM | 93% | 97% | 0.0009 µM |
| CC(C)(O)c1cc2nn([C@H]3CC[C@H](N4CCN(C(=O)C5CN(c6cc(F)c(N7CCC(=O)NC7=O)c(F)c6)C5)CC4)CC3)cc2cc1NC(=O)c1ccc2cc(C#N)cnn12 [Example 105, 3-cyano-N-(2-((1r,4r)-4-(4-(1-(4-(2,4-dioxotetrahydropyrimidin-1(2H)-yl)-3,5-difluorophenyl)azetidine-3-carbonyl)piperazin-1-yl)cyclohexyl)-6-(2-hydroxypropan-2-yl)-2H-indazol-5-yl)pyrrolo[1,2-b]pyridazine-7-carboxamide] | 98% | 0.0007 µM | 0.021 µM | 98% | 0.036 µM | 78% | 97% | 0.0031 µM |
| C[C@@H]1CN([C@H]2CC[C@H](n3cc4cc(NC(=O)c5ccc6cc(C#N)cnn56)c(C(C)(C)O)cc4n3)CC2)CCN1C(=O)C1CN(c2cc(F)c([C@H]3CCC(=O)NC3=O)c(F)c2)C1 [Example 309, 3-cyano-N-(2-((1R,4r)-4-((R)-4-(1-(4-((R)-2,6-dioxopiperidin-3-yl)-3,5-difluorophenyl)azetidine-3-carbonyl)-3-methylpiperazin-1-yl)cyclohexyl)-6-(2-hydroxypropan-2-yl)-2H-indazol-5-yl)pyrrolo[1,2-b]pyridazine-7-carboxamide] | 97% | 0.0004 µM | 0.014 µM | 100% | 0.031 µM | 90% | – | – |
| COC[C@H]1CN([C@H]2CC[C@H](n3cc4cc(NC(=O)c5ccc6cc(C#N)cnn56)c(C(C)(C)O)cc4n3)CC2)CCN1CC1CN(c2cc(F)c([C@H]3CCC(=O)NC3=O)c(F)c2)C1 [Example 367, 3-cyano-N-(2-((1R,4r)-4-((R)-4-((1-(4-((R)-2,6-dioxopiperidin-3-yl)-3,5-difluorophenyl)azetidin-3-yl)methyl)-3-(methoxymethyl)piperazin-1-yl)cyclohexyl)-6-(2-hydroxypropan-2-yl)-2H-indazol-5-yl)pyrrolo[1,2-b]pyridazine-7-carboxamide] | 99% | 0.0007 µM | 0.012 µM | 96% | 0.011 µM | 96% | 97% | 0.0031 µM |
| COC[C@H]1CN([C@H]2CC[C@H](n3cc4cc(NC(=O)c5ccc6cc(C#N)cnn56)c(C(C)(C)O)cc4n3)CC2)CCN1C(=O)C1CN(c2cc(F)c([C@H]3CCC(=O)NC3=O)c(F)c2)C1 [Example 185, 3-cyano-N-(2-((1R,4r)-4-((R)-4-(1-(4-((R)-2,6-dioxopiperidin-3-yl)-3,5-difluorophenyl)azetidine-3-carbonyl)-3-(methoxymethyl)piperazin-1-yl)cyclohexyl)-6-(2-hydroxypropan-2-yl)-2H-indazol-5-yl)pyrrolo[1,2-b]pyridazine-7-carboxamide] | 96% | 0.0007 µM | 0.014 µM | 100% | 0.012 µM | 91% | – | – |
| COc1cc2nn([C@H]3CC[C@H](CN4CCN(C(=O)[C@@H]5CCN(c6ccc(N7CCC(=O)NC7=O)cc6)C5)CC4)CC3)cc2cc1NC(=O)c1cccn(C2CC2)c1=O [Example 33, 1-cyclopropyl-N-(2-((1R,4r)-4-((4-((R)-1-(4-(2,4-dioxotetrahydropyrimidin-1(2H)-yl)phenyl)pyrrolidine-3-carbonyl)piperazin-1-yl)methyl)cyclohexyl)-6-methoxy-2H-indazol-5-yl)-2-oxo-1,2-dihydropyridine-3-carboxamide] | 99% | 0.0031 µM | – | – | 0.101 µM | 53% | 81% | 0.033 µM |
